Values quoted from earlier work as cited in patent US20230142073A1 (priority 2020, published 2023).
Read-outs that look alike come from different tables or passages of the source.

Legend:
[1] = tested on: SARS-CoV-2 infected patients presenting with Severe Acute Respiratory Distress Syndrome (SARDS); conditions: 10 ppm NO inhaled; baseline 102
Sars-Cov-2 ARDS patients = conditions: iv 2 μg/kg/min; in the following 6 hours; 19 patients; baseline 79; p-value=0.001
[2] = tested on: human patients with a coronavirus (SARS-CoV-2) infection
[3] = tested on: SARS-CoV-2 infected patients, exhibiting Acute Respiratory Distress Syndrome (ARDS); conditions: iv 10 μg/kg/min, mean maintenance 1.65 μg/kg/min
[4] = tested on: person with a SARS-CoV-2 infection and Severe Acute Respiratory Distress Syndrome (SARDS); conditions: iv 4 μg/kg/min; for PaO2: baseline 63; for PaO2/FiO2: baseline 70
[5] = 10 patients, iv 4 then 12 μg/kg/min
[6] = 1 hour after almitrine infusion
[7] = 2 hours after almitrine infusion
[8] = 12 hours after almitrine infusion

Row | SMILES | median PaO2/FiO2 after NO [1] | median PaO2/FiO2 after almitrine (Sars-Cov-2 ARDS patients) | median PaO2/FiO2 ratio after almitrine administration ([2]; 10 patients, 135 before almitrine, iv 4 then 12 μg/kg/min) | increase of median PaO2/FiO2 ratio ([2]; 10 patients, from 135 before to 215 after almitrine) | cardiac index [2, 5] | right atrial pressures [2, 5] | number of patients with increased PaO2/FiO2 ([2]; out of 10 human patients (median age 70), iv 4 μg/kg/min for 30-45 min, then 12 μg/kg/min for 30-45 min, intubated and ventilated) | lower mortality ([3]; 32 patients) | side-effects ([3]; 32 patients) | responders (PaO2 increase of more than 20%) ([3]; 32 patients, NO inhaled in 75% of cases) | mean increase in PaO2 ([3]; responders) | PaO2 [4, 6] | PaO2/FiO2 [4, 6] | PaO2 [4, 7] | PaO2/FiO2 [4, 7] | PaO2 [4, 8] | PaO2/FiO2 [4, 8]
1 | [N]=O [NO, Nitric Oxide] | 124 mmHg | – | – | – | – | – | – | – | – | – | – | – | – | – | – | – | –
2 | C=CCNc1nc(NCC=C)nc(N2CCN(C(c3ccc(F)cc3)c3ccc(F)cc3)CC2)n1.CS(=O)(=O)O [almitrine dimesylate, 6-[4-[bis(4-fluorophenyl)methyl]piperazin-1-yl]-2-N,4-N-bis(prop-2-enyl)-1,3,5-triazine-2,4-diamine methanesulfonic acid] | – | 117 mmHg | 215 mmHg | 80 mmHg | not affected | not affected | 8 | 16% | no significant side-effects | 66% | 67% | 67 mm Hg | 84 mmHg | 130 mm Hg | 216 mmHg | 170 mm Hg | 283 mmHg
